In US20160367464A1, “METHOD AND COMPOSITION FOR IMPROVING SKIN CONDITIONS COMPRISING HUMAN PLACENTAL LACTOGEN AS AN ACTIVE INGREDIENT” (Regeron, Inc., priority 2012, published 2016):
Where “and” joins values, the source holds several entries; their conditions need not be identical. Equal values may be shown once.

Experiments:
Format in all cases: in vivo, mouse
[1] = system: UVB-irradiated SKH-1 female nude mice; test: Wrinkle improving effects in UVB-irradiated SKH-1 hairless nude mice (Donald method); design: key: —: No wrinkle formation; *: Slightly deep and thick wrinkle; **: Slightly to moderately deep and thick wrinkle; ***: Moderately deep and thick wrinkle; ****: Moderately to severely deep and thick wrinkle; *****: Severely deep and thick wrinkle; conditions: SKH-1 nude mice, U.V. irradiation Yes, 0.1% retinoic acid in 15% EtOH
Method: The 4-week-old SKH-1 female nude mice were purchased from Douyul Biotech, Sungnam, Korea). The animal breeding chambers were kept at 24±0.2° C. and relative humidity at 50±10% in a 12-hr light/12-hr dark cycle. The animals were permitted free access to solid feed (Central Lab. Animal Inc., Seoul, Korea) and water sterilized by irradiation and acclimated for about 2 weeks before divided them into 7 groups by random selection.
In order to induce wrinkle formation on the backside of the nude mice, UVB was irradiated to the mice three times a week for 11 weeks using the VLX-3W stimulator (Vilber Lourmat, Marne la Vallee, France) in the protocol: 30 mJ/cm^2 for the weeks 1 and 2, 40 mJ/cm^2 for the weeks 3 and 4, 50 mJ/cm^2 for the weeks 5 through 9, and 60 mJ/cm^2 for the weeks 10 and 11. […]
The wrinkle-improving effect was evaluated according to the Donald method (Hyun-Seok Kim et. al, Mech. Ageing Dev. 126:1255-61, 2005). […] In the present invention, the effects of Lipo-hPL and other skin-conditioning agents on wrinkle formation were evaluated by observing changes of the thickness and depth of wrinkles before and after treatments.

[2] = system: Nc/Nga mice with short term atopic dermatitis; test: Skin damage score, short term TNCB-induced atopic dermatitis; conditions: short term (6 weeks); for Overall damage: sum of erythema, edema, erosion, dryness divided by number of animals (3)
Method: (§1) Four weeks old male Nc/Nga mice were purchased from Orientbio Inc. (Korea) and bred at 24±2° C. and 50±10% relative humidity under 12 hours light/dark cycles. Animals were subject to 1-week acclimating period prior to the experiments.
First, the dorsal area of Nc/Nga mice was shaved, which was sensitized by applying 5% TNCB 150 µl. Then 1% TNCB solution made in olive oil was applied to the sensitized area once every week for 6 weeks.
(§2) Lipo-hPL (20 μg/ml) was topically applied 5 times per week for 6 weeks (short term) and 13 weeks (long term).
(§3) The skin damage was classified to 4 types as described in the Table 8. Based on the pictures taken every week for the inflamed dorsal area, the severity of the damage was evaluated and scored based on the 4 levels as shown below.

[3] = system: Nc/Nga mice with long term atopic dermatitis; test: Skin damage score, long term TNCB-induced atopic dermatitis
Method: as §1
The dorsal area of Nc/Nga mice was shaved, which was sensitized by applying 5% TNCB 150 µl. Then 1% TNCB solution made in olive oil was applied to the sensitized area for total 22 times over the period of 13 weeks.
as §2, §3

serum IgE = test: Serum IgE measurement (ELISA) in Nc/Nga mice with atopic dermatitis; conditions: TNCB-treated Nc/Nga mice, short term topical application (FIG. 13), Lipo-hPL 20 μg/ml
Excerpt: Atopic individuals can have up to 10 times the normal level of IgE in their blood, even though this may not be a requirement for symptoms to occur as has been seen in asthmatics with normal IgE levels in their blood—recent research has shown that IgE production can occur locally in the nasal mucosa (Takhar P et al. (2005) J Immunol 174 (8): 5024-32). After the completion of the Lipo-hPL treatment for the induced inflammation, blood was drawn from the great saphenons vein and the serum was obtained by centrifugation. The serum IgE was measured using the IgE ELISA kit (GomaBiotech, Korea).

[4] = system: Nc/Nga mice with atopic dermatitis; test: Skin thickness measurement on H&E stained slides, Nc/Nga mice with atopic dermatitis
Excerpt: Upon the completion of all necessary treatments, affected areas of the dorsal skin was severed and fixed in 4% formaldehyde and set into a block using paraffin. The paraffin block was cut into 10 um thin slices using microtome, which were set on glass slides followed by stained with hematoxylin and eosin (H&E) before subject to the microscopic observation.
The tissue slides stained with H&E were photographed in order to measure the skin thickness ranging from exoderm, fat layer to the muscle layer using the appropriate software provided for the microscope utilized for the measurement of skin thickness.

[5] = score 0-3 per animal summed over 3 animals, Lipo-hPL 20 μg/ml topical 5 times per week
[6] = long term (13 weeks), scores summed over 2 animals, Lipo-hPL 20 μg/ml topical 5 times per week

Structure (SMILES)	Changes in wrinkle depth and thickness ([1]; Appendix Table 5, topical 11 weeks, 20 μg/ml Lipo-hPL, 4.1 μg/ml Lipo-his-hPL)	Changes in wrinkle depth and thickness ([1]; topical 5 times a week for 11 weeks, 20 µg/ml Lipo-hPL, 4 µg/ml Lipo-his-hPL)	Dryness [2, 5]	Edema [2, 5]	Erosion [2, 5]	Erythema [2, 5]	Overall damage [2]	Overall damage ([2]; listed as FK506)	Dryness [3, 6]	Edema [3, 6]	Erosion [3, 6]	Erythema [3, 6]	Overall damage ([3]; long term (13 weeks), sum of erythema, edema, erosion, dryness divided by number of animals (2))	Long term skin damages score ([3]; long term, out of 10 as the most severe damage)	IgE (serum IgE)	Exodermal thickness of animals treated with TNCB only relative to treated animals [4]	Average skin thickness (epidermis, dermis and subcutaneous layer) ([4]; TNCB-treated Nc/Nga mice, long term topical application (FIG. 16))
CC1=C(/C=C/C(C)=C/C=C/C(C)=C/C(=O)O)C(C)(C)CCC1 [Retinoic acid, retinoic acid]	**	**	–	–	–	–	–	–	–	–	–	–	–	–	–	–	–
C=CC[C@@H]1/C=C(\C)C[C@H](C)C[C@H](OC)[C@H]2O[C@@](O)(C(=O)C(=O)N3CCCC[C@H]3C(=O)O[C@H](/C(C)=C/[C@@H]3CC[C@@H](O)[C@H](OC)C3)[C@H](C)[C@@H](O)CC1=O)[C@H](C)C[C@@H]2OC [Tacrolimua (FK506), Tacrolimua]	–	–	3	0	3	3	3.0	3.0±0.3	3	1.5	3.5	1.5	4.75 and 4.8	2.4±0.7	107.1 ng/mL	approximately 10 folds	408.0±23.4 μm
